Laboratory results as given in the NIST ThermoML archive (doi:10.1021/je060271a).

Conditions: 283.15 K, Liquid, Vibrating tube method

CCCC(=O)OCC(COC(=O)CCC)(COC(=O)CCC)COC(=O)CCC [pentaerythritol tetrabutyrate]
Conditions	mass density [kg/m3]
5069.8 kPa	1062.1
5785 kPa	1062.4
5790.3 kPa	1062.5
5796.4 kPa	1062.5
6791.4 kPa	1063
7204.6 kPa	1063.2
7259.3 kPa	1063.3
7320.1 kPa	1063.4
7411.4 kPa	1063.4
7437.1 kPa	1063.4
7462.9 kPa	1063.3
7545.9 kPa	1063.4
7572.6 kPa	1063.5
7606 kPa	1063.5
7632.9 kPa	1063.5
7657.7 kPa	1063.5
7681.7 kPa	1063.5
7710.4 kPa	1063.4
7734.6 kPa	1063.6
8293.1 kPa	1063.8
11358 kPa	1065.7
11377 kPa	1065.7
11399 kPa	1065.7
11419 kPa	1065.6
11438 kPa	1065.6
11456 kPa	1065.7
11667 kPa	1065.7
11687 kPa	1066
11708 kPa	1065.9
11731 kPa	1065.8
11751 kPa	1065.9
11775 kPa	1066
11795 kPa	1066
11816 kPa	1065.9
11836 kPa	1065.9
11862 kPa	1065.9
11882 kPa	1065.9
11903 kPa	1065.9
11928 kPa	1066
11949 kPa	1066
11995 kPa	1065.9
12016 kPa	1066
13152 kPa	1066.7
13178 kPa	1066.7
13234 kPa	1066.6
13898 kPa	1067.1
15509 kPa	1068
15590 kPa	1068
15620 kPa	1068.1
15664 kPa	1068.1
15701 kPa	1068
15739 kPa	1068
15784 kPa	1068.2
15822 kPa	1068.1
15860 kPa	1068.2
15906 kPa	1068.2
17727 kPa	1069.2
17738 kPa	1069.3
17748 kPa	1069.2
17759 kPa	1069.3
17769 kPa	1069.2
17778 kPa	1069.1
18091 kPa	1069.4
18103 kPa	1069.5
18112 kPa	1069.4
18122 kPa	1069.4
18135 kPa	1069.5
18145 kPa	1069.4
18166 kPa	1069.5
18176 kPa	1069.4
18264 kPa	1069.5
18274 kPa	1069.6
18296 kPa	1069.4
18306 kPa	1069.5
18318 kPa	1069.6
18328 kPa	1069.5
18338 kPa	1069.5
18351 kPa	1069.5
18864 kPa	1069.8
18899 kPa	1069.8
18956 kPa	1069.9
18967 kPa	1069.8
18980 kPa	1069.6
18991 kPa	1069.8
19143 kPa	1069.9
19349 kPa	1070.2
19360 kPa	1070.1
19371 kPa	1070.1
19383 kPa	1070
19397 kPa	1070.1
19419 kPa	1070.1
19433 kPa	1070.3
19458 kPa	1070.2
19470 kPa	1070.1
20345 kPa	1070.6
20358 kPa	1070.6
20371 kPa	1070.7
20383 kPa	1070.7
20398 kPa	1070.7
20411 kPa	1070.7
20426 kPa	1070.8
20439 kPa	1070.8
20452 kPa	1070.6
20631 kPa	1070.8
20647 kPa	1070.9
20659 kPa	1070.9
20673 kPa	1070.8
20689 kPa	1070.8
20702 kPa	1070.8
20718 kPa	1070.8
20731 kPa	1070.8
20744 kPa	1070.9
20757 kPa	1070.9
20943 kPa	1071
20960 kPa	1071
20973 kPa	1071
20987 kPa	1071
21354 kPa	1071.2
21371 kPa	1071.2
21386 kPa	1071.4
21583 kPa	1071.3
21614 kPa	1071.3
21629 kPa	1071.5
21646 kPa	1071.3
21661 kPa	1071.2
21676 kPa	1071.4
21691 kPa	1071.4
21708 kPa	1071.3
21738 kPa	1071.4
21756 kPa	1071.4
21770 kPa	1071.4
21833 kPa	1071.5
21848 kPa	1071.5
21866 kPa	1071.5
21881 kPa	1071.5
21895 kPa	1071.5
21910 kPa	1071.5
21928 kPa	1071.5
21943 kPa	1071.7
21958 kPa	1071.6
21976 kPa	1071.6
21991 kPa	1071.5
22008 kPa	1071.6
22350 kPa	1071.7
22366 kPa	1071.8
22381 kPa	1071.6
22400 kPa	1071.8
22416 kPa	1071.7
22432 kPa	1071.7
22448 kPa	1071.7
22467 kPa	1071.7
22485 kPa	1071.7
22500 kPa	1071.8
22516 kPa	1071.7
22535 kPa	1071.9
22551 kPa	1072
22567 kPa	1071.8
22586 kPa	1071.9
22602 kPa	1071.9
22618 kPa	1071.8
22634 kPa	1071.9
22654 kPa	1071.9
22670 kPa	1072
22686 kPa	1071.9
22706 kPa	1071.9
22722 kPa	1071.9
22738 kPa	1071.9
22754 kPa	1071.9
22774 kPa	1071.9
22806 kPa	1072
22894 kPa	1072.1
22914 kPa	1072
22930 kPa	1072.1
22946 kPa	1072
22964 kPa	1072.1
22984 kPa	1072
23000 kPa	1072.1
23143 kPa	1072.2
23160 kPa	1072.1
23177 kPa	1072.1
23197 kPa	1072.2
23214 kPa	1072.3
23231 kPa	1072.3
23249 kPa	1072.2
23286 kPa	1072.2
23303 kPa	1072.3
23324 kPa	1072.2
23341 kPa	1072.3
23358 kPa	1072.2
23379 kPa	1072.2
23396 kPa	1072.3
23413 kPa	1072.3
23731 kPa	1072.5
23749 kPa	1072.5
23882 kPa	1072.6
23900 kPa	1072.5
23921 kPa	1072.6
23939 kPa	1072.5
23958 kPa	1072.7
23980 kPa	1072.6
23998 kPa	1072.5
24016 kPa	1072.7
24272 kPa	1072.8
24291 kPa	1072.8
24313 kPa	1072.8
24675 kPa	1073
24694 kPa	1073
24718 kPa	1073
24737 kPa	1073
24756 kPa	1073
24780 kPa	1073
24799 kPa	1073.1
24819 kPa	1073
24842 kPa	1073.1
24862 kPa	1073.1
24882 kPa	1073.1
24902 kPa	1073.1
24926 kPa	1073.1
24945 kPa	1073.1
24969 kPa	1073.2
25008 kPa	1073.3
25032 kPa	1073.1
25052 kPa	1073.1
25072 kPa	1073.2
25092 kPa	1073.2
25112 kPa	1073.3
25136 kPa	1073.2
25157 kPa	1073.1
25182 kPa	1073.3
25201 kPa	1073.3
25225 kPa	1073.2
25246 kPa	1073.2
25266 kPa	1073.3
25287 kPa	1073.3
25311 kPa	1073.3
25332 kPa	1073.3
25353 kPa	1073.3
25378 kPa	1073.3
25399 kPa	1073.4
25420 kPa	1073.3
25441 kPa	1073.3
25465 kPa	1073.5
25486 kPa	1073.3
25598 kPa	1073.4
25620 kPa	1073.5
25641 kPa	1073.6
25666 kPa	1073.5
25688 kPa	1073.6
25710 kPa	1073.5
25731 kPa	1073.6
25757 kPa	1073.5
25778 kPa	1073.5
25799 kPa	1073.5
25820 kPa	1073.5
25846 kPa	1073.6
25867 kPa	1073.5
25889 kPa	1073.7
25915 kPa	1073.5
25936 kPa	1073.6
25958 kPa	1073.7
25985 kPa	1073.7
26009 kPa	1073.6
26031 kPa	1073.7
26052 kPa	1073.7
26074 kPa	1073.8
26101 kPa	1073.8
26122 kPa	1073.6
26148 kPa	1073.8
26170 kPa	1073.8
26193 kPa	1073.7
26219 kPa	1073.8
26241 kPa	1073.8
26264 kPa	1073.8
26290 kPa	1073.8
26313 kPa	1073.8
26334 kPa	1073.8
26361 kPa	1073.8
26384 kPa	1073.9
26406 kPa	1073.8
26429 kPa	1073.8
26456 kPa	1074
26478 kPa	1073.9
26501 kPa	1073.8
26722 kPa	1074
26740 kPa	1074
26772 kPa	1074.1
26796 kPa	1074
26824 kPa	1074.1
26848 kPa	1074.1
26871 kPa	1074.2
26899 kPa	1074.2
26923 kPa	1074
